{"source": "patent US20020164314A1", "about": "“Ovarian hormone induced neural stem cell increase” (Neurostasis, Inc., priority 2001, published 2002)", "origin": "cited, not measured here", "key": {"[1]": {"tested_on": "proliferating cells in the dentate gyrus"}, "[2]": {"tested_on": "SVZ proliferating cells"}, "[3]": {"tested_on": "development of female characteristics in animals"}, "[4]": {"settings": "corticosterone, Alonso 2000, adult rats"}}, "data": [{"molecule": "Estrogen", "values": [{"measurement": "number of new neurons in the dentate gyrus", "setting": "[1]; Tanapat et al. 1999, adult female", "result": "transient increase"}, {"measurement": "proliferation in the dentate gyrus", "setting": "[1]; Tanapat et al. 1999, adult female rat", "result": "stimulate proliferation"}, {"measurement": "mitotic activity in the subventricular zone", "setting": "[2]; Tanapat et al. 1999", "result": "no mitotic activity"}]}, {"molecule": "C[C@]12C[C@H](O)[C@H]3[C@@H](CCC4=CC(=O)CC[C@@]43C)[C@@H]1CC[C@@H]2C(=O)CO", "note": "[corticosterone]", "values": [{"measurement": "cell proliferation in the dentate gyrus", "setting": "[1]; [4]", "result": "dramatically decreases"}, {"measurement": "effect on the SVZ proliferating cells", "setting": "[2]; [4]", "result": "no effect"}]}, {"molecule": "C[C@]12CC[C@@H]3c4ccc(O)cc4CC[C@H]3[C@@H]1CC[C@@H]2O", "note": "[β-estradiol]", "values": [{"measurement": "estrogenic potency relative to estriol", "setting": "[3]; ratio versus estriol", "result": 80, "unit": "times"}, {"measurement": "estrogenic potency relative to estrone", "setting": "[3]; ratio versus estrone", "result": 12, "unit": "times"}]}]}
